Source: paper PMC7893915, “Assessing cross-resistance within the pyrethroids in terms of their interactions with key cytochrome P450 enzymes and resistance in vector populations” (Parasites & Vectors, 2021)
Like-named read-outs stand apart in the source and are kept apart here.

How the values were obtained:
Ae. aegypti = test: WHO adult susceptibility test on field samples, Ae. aegypti; type: in vivo, Aedes aegypti; conditions: standard diagnostic doses
Excerpt: The analyses conducted using data from An. gambiae (s.l.) samples were repeated using data from the An. funestus subgroup, An. arabiensis, An. coluzzii, An. funestus and An. gambiae samples (Additional file 2). The same approach was also used for susceptibility test data from Aedes albopictus and Ae. aegypti to investigate whether the same relationships could be detected in these vectors of arboviruses, as detailed in Additional file 3.
Additional File 3: Cross-resistance to pyrethroids within wild populations of Aedes vectors […]
If structural diversity within the pyrethroids is also associated with divergence in resistance within the Aedes vectors of arboviruses, this would lend weight to the findings for malaria vectors presented in the main manusc ript. Like the Anopheles vectors, target-site mutations and metabolic resistance are thought to be the main resistance mechanisms in Aedes mosquitoes. At least ten mutations in the Aedes aegypti Vgsc gene have been identified and the most widespread mutation, […]
mutations and is also associated with DDT resistance. More recently, the V1016G mutation has been found in Ae. albopictus in Viet Nam and Italy, and both this allele and the F1534C and F1534S […]
expression of cytochrome P450s has also been implicated in pyrethroid resistance within Aedes mosquitoes and there is evidence that metabolic resistance can confer cross -resistance to multiple pyrethroids. For example, over-expression of CYP9J28 is associated with metabolic resistance to […]
target site- and P450-mediated resistance in Ae. aegypti strains found variation in resistance to seven pyrethroids and hypothesised that some patterns of resistance could be linked to structural differences, but also noted that general conclusions are challenging to make without a greater number of compounds with a single modification to compare. No studies of structure activity relationships using a wide range of pyrethroids and P450s from Aedes mosquitoes have been conducted to-date, but data on resistance in wild populations are available. A wider range of pyrethroids are more typically tested by studies of resistance in Aedes vectors, compared to Anopheles vectors, although these studies are also more varied in terms of diagnostic dose, bioass ay method and life cycle stage, making comparisons across studies difficult. Here we selected studies that used a common experimental design and investigated correlations in resistance to pairs of pyrethroids mirroring part of the work on Anopheles vectors presented in the main manuscript.
We identified all instances within a public insecticide resistance database where an Aedes field sample had been subdivided among tests for different pyrethroids. We then identified the most commonly used bioassay type across the new pyrethroid dataset, which was the WHO adult susceptibility test as described for malaria vectors, and the most commonly used diagnostic dose for […]
each compound (Table S2). […]
removed. Paired results were then extracted, and the mean values for the Pearson’s correlation coefficient were calculated for each pyrethroid pair using 1,000 bootstaps in SPSS Statistics v25.
Table S5. Diagnostic doses and data volumes for each pyrethroid.
Pyrethroid Most common dose Number of data points
The number of data points available for each pyrethroid from an Ae. aegypti sample that was used to test at least one other pyrethroid, using standard WHO susceptibility tests and standard diagnostic doses, is given.

CYP6P3 = conditions: cited from earlier work
CYP6P9a = conditions: read-out: IC50 CYP6P9a, inhibition of diethoxyfluorescein metabolism, cited from earlier work
Gambiae Complex = conditions: WHO Bioassay 1998, cited from earlier work
Anopheles funestus = conditions: F1, house resting indoors, WHO Bioassay 1998, cited from earlier work
Anopheles sinensis = system: Anopheles sinensis; parameters: method as in PMID 24159535; conditions: resistance ratios using LC50 values from a susceptible strain; most susceptible to bifenthrin, cyfluthrin and etofenprox, in that order; ref [55]; cited from earlier work
CYP6M2 = conditions: Incubation time 2h; mean ± SD; ref [38], [41]; cited from earlier work
[1] = Pair 1 deltamethrin vs etofenprox, N 29 paired Ae. aegypti samples
[2] = Pair 6 deltamethrin vs permethrin, N 136 paired Ae. aegypti samples
[3] = Pair 9 deltamethrin vs λ-cyhalothrin, N 67 paired Ae. aegypti samples
[4] = footnote a, ref Yunta et al. 2016[8]
[5] = ID 100045, F0, larval collection, 7/2010-12/2010, Ahero Division, Kenya, ref Ochomo E et al. Med Vet Entomol. 2013;27(2):156-64
[6] = ID 100117, F1, house resting indoors, 4/2010, VK2, Burkina Faso, ref Kwiatkowska RM et al. Gene. 2013;519(1):98-106
[7] = ID 100127, F1, house resting indoors, 4/2010, VK6, Burkina Faso, ref Kwiatkowska RM et al. Gene. 2013;519(1):98-106
[8] = ID 100156, F0, larval collection, 5/2009-4/2010, Chano, Ethiopia, ref Massebo F et al. Parasites Vectors. 2013;6
[9] = ID 100160, F0, larval collection, 10/2008-5/2009, Nkolondom, Cameroon, ref Nwane P et al. Parasites Vectors. 2013;6
[10] = ID 200044, 4/2009-4/2010, Kalungama, Malawi, ref Wondji CS et al. Proc Natl Acad Sci U S A. 2012;109(47):19063-70
[11] = ID 200045, 4/2009-4/2010, Chinkole, Malawi, ref Wondji CS et al. Proc Natl Acad Sci U S A. 2012;109(47):19063-70
[12] = ID 200048, 3/2000-7/2002, Catembe, Mozambique, ref Casimiro S et al. J Med Entomol. 2006;43(2):267-75
[13] = ID 200117, 4/2009-11/2009, Tororo, Uganda, ref Morgan JC et al. PLoS One. 2010;5(7)
[14] = Pair 3 λ-cyhalothrin vs etofenprox, N 21 paired Ae. aegypti samples
[15] = Pair 4 permethrin vs etofenprox, N 31 paired Ae. aegypti samples
[16] = read-out: IC50 CYP6P3, inhibition of diethoxyfluorescein metabolism, footnote b, ref Yunta et al. 2019[10]
[17] = footnote b, ref Yunta et al. 2019[10]
[18] = Pair 8 permethrin vs λ-cyhalothrin, N 56 paired Ae. aegypti samples

Q: What does the source list for CC1(C)[C@H](C(=O)O[C@H](C#N)c2cccc(Oc3ccccc3)c2)[C@@H]1C=C(Br)Br [Deltamethrin, deltamethrin]?
A: Mean percent mortality (SE) (Ae. aegypti; [1]): 90.68 (2.80) percent; Mean percent mortality (SE) (Ae. aegypti; [2]): 88.10 (1.66) percent; Mean percent mortality (SE) (Ae. aegypti; [3]): 85.64 (2.66) percent; Mean percent mortality (SE) (Ae. aegypti; Pair 10 deltamethrin vs cyfluthrin, N 72 paired Ae. aegypti samples): 88.43 (1.94) percent; IC50 (CYP6P3; read-out: IC50 CYP6P3, inhibition of diethoxyfluorescein metabolism, footnote a, ref Yunta et al. 2016[8]): 3.2 µM; IC50 (CYP6P9a; [4]): 2.6 µM; mortality (Gambiae Complex; [5]): 92.31; mortality (Gambiae Complex; [6]): 37.2; mortality (Gambiae Complex; [7]): 18.8; mortality (Gambiae Complex; [8]): 47; mortality (Gambiae Complex; [9]): 95; mortality (Anopheles funestus; [10]): 51.2; mortality (Anopheles funestus; [11]): 68.5; mortality (Anopheles funestus; [12]): 55.2; mortality (Anopheles funestus; [13]): 39

Q: With CCOc1ccc(C(C)(C)COCc2cccc(Oc3ccccc3)c2)cc1 [Etofenprox, etofenprox] as the compound, how does the “Mean percent mortality (SE)” value (Ae. aegypti; [1]) read?
A: Its value is 21.59 (4.75) percent.

Q: What about the “Mean percent mortality (SE)” value (Ae. aegypti; Pair 2 cyfluthrin vs etofenprox, N 22 paired Ae. aegypti samples) of the same compound?
A: Its value is 21.14 (5.32) percent.

Q: What about the “Mean percent mortality (SE)” value (Ae. aegypti; [14]) of the same compound?
A: Its value is 16.81 (4.43) percent.

Q: And the “Mean percent mortality (SE)” value (Ae. aegypti; [15])?
A: The value was 21.09 (4.89) percent.

Q: And the “susceptibility of larvae, rank in words” value (Anopheles sinensis)?
A: The value was “most susceptible”.

Q: What about the IC50 (CYP6P3; [16]) of the same compound?
A: Its IC50 is 8.3 µM.

Q: What about the IC50 (CYP6P9a; [17]) of the same compound?
A: Its IC50 is 8.1 µM.

Q: And the “% Insecticide depletion CYP6M2” value (CYP6M2)?
A: Its value is 68.8 ± 1.1%.

Q: For CC1(C)C(C=C(Cl)Cl)C1C(=O)OCc1cccc(Oc2ccccc2)c1 (stereo not drawn) [Permethrin, permethrin], which “Mean percent mortality (SE)” value (Ae. aegypti; [15]) is on record?
A: The value was 63.39 (5.36) percent.

Q: And the “Mean percent mortality (SE)” value (Ae. aegypti; Pair 5 permethrin vs cyfluthrin, N 79 paired Ae. aegypti samples)?
A: The value was 59.01 (3.18) percent.

Q: What about the “Mean percent mortality (SE)” value (Ae. aegypti; [2]) of the same compound?
A: The value was 61.44 (2.40) percent.

Q: And the “Mean percent mortality (SE)” value (Ae. aegypti; [18])?
A: Its value is 70.10 (3.99) percent.

Q: And the “susceptibility of larvae, rank in words” value (Anopheles sinensis)?
A: The value was “least susceptible”.

Q: And the IC50 (CYP6P3)?
A: The IC50 was 6.8 µM.

Q: What about the IC50 (CYP6P9a; [4]) of the same compound?
A: Its IC50 is 5.7 µM.

Q: What about the “% Insecticide depletion CYP6M2” value (CYP6M2) of the same compound?
A: The value was 58.5 ± 2.2%.

Q: What about the mortality (Gambiae Complex; [5]) of the same compound?
A: Its mortality is 91.97.

Q: And the mortality (Gambiae Complex; [6])?
A: Its mortality is 4.1.

Q: And the mortality (Gambiae Complex; [7])?
A: The mortality was 3.

Q: And the mortality (Gambiae Complex; [9])?
A: The mortality was 95.

Q: And the mortality (Anopheles funestus; [10])?
A: The mortality was 67.4.

Q: And the mortality (Anopheles funestus; [12])?
A: The mortality was 100.

Q: What about the mortality (Anopheles funestus; [13]) of the same compound?
A: The mortality was 69.

Q: For CC1(C)[C@H](C(=O)O[C@H](C#N)c2cccc(Oc3ccccc3)c2)[C@@H]1/C=C(\Cl)C(F)(F)F (racemic) [λ-Cyhalothrin, λ-cyhalothrin], which “Mean percent mortality (SE)” value (Ae. aegypti; [14]) is on record?
A: Its value is 72.40 (4.52) percent.

Q: And the “Mean percent mortality (SE)” value (Ae. aegypti; Pair 7 λ-cyhalothrin vs cyfluthrin, N 25 paired Ae. aegypti samples)?
A: Its value is 66.90 (5.01) percent.

Q: And the “Mean percent mortality (SE)” value (Ae. aegypti; [18])?
A: The value was 84.52 (3.40) percent.

Q: What about the “Mean percent mortality (SE)” value (Ae. aegypti; [3]) of the same compound?
A: The value was 74.16 (3.55) percent.

Q: What about the IC50 (CYP6P3; [16]) of the same compound?
A: The IC50 was 9.6 µM.

Q: And the IC50 (CYP6P9a; [17])?
A: The IC50 was 3.7 µM.

Q: What about the “% Insecticide depletion CYP6M2” value (CYP6M2) of the same compound?
A: Its value is 49.4 ± 0.5%.

Q: And the mortality (Gambiae Complex; [7])?
A: The mortality was 7.3.

Q: What about the mortality (Gambiae Complex; [8]) of the same compound?
A: The mortality was 56.

Q: What about the mortality (Anopheles funestus; [10]) of the same compound?
A: Its mortality is 34.3.

Q: And the mortality (Anopheles funestus; [11])?
A: Its mortality is 60.

Q: And the mortality (Anopheles funestus; [12])?
A: Its mortality is 59.3.

Q: What does the source list for Cc1c(COC(=O)[C@@H]2[C@H](/C=C(\Cl)C(F)(F)F)C2(C)C)cccc1-c1ccccc1 (racemic) [Bifenthrin, bifenthrin]?
A: susceptibility of larvae, rank in words (Anopheles sinensis): most susceptible; IC50 (CYP6P3; [16]): 3.5 µM; IC50 (CYP6P9a; [17]): 8.5 µM; % Insecticide depletion CYP6M2 (CYP6M2): 38.9 ± 1.6%
